Data on four compounds can be found in US8916499B2, “Herbicidal compositions comprising 4-amino-3-chloro-5-fluoro-6-(4-chloro-2-fluoro-3-methoxyphenyl) pyridine-2-carboxylic acid or a derivative thereof and a protoporphyrinogen oxidase inhibitor” (Dow AgroSciences LLC, priority 2012, dated 2014).

Assay [1] concerns LEFCH. Nature of the assay: Postemergence foliar-applied weed control, direct seeded rice, greenhouse (Example I). The assay is classed as in vivo, Leptochloa chinensis (L.) Nees. The settings on record: g ae/ha Compound A n-Butyl Ester+g ai/ha carfentrazone-ethyl: r11 16+0, r12 0+28, r13 16+28.
In assay [2] the test system is IPOHE. The assay is described as above. The class given is in vivo, Ipomoea hederacea Jacq.
Assay [3] deals with ECHOR. Nature of the assay: In-water applied weed control, transplanted paddy rice, greenhouse (Example II). The assay is classed as in vivo, Echinochloa oryzoides (Ard.) Fritsch.
Assay [4] has as its system LEFCH. The assay is described as above. The settings on record: 35 g ae/ha alone. The assay is classed as in vivo, Leptochloa chinensis (L.) Nees.
Assay [5] relates to IPOHE. Nature of the assay: Pre-emergence soil-applied weed control, greenhouse (Example IV). The class given is in vivo, Ipomoea hederacea (L.) Jacq. The source says: Seeds or nutlets of the desired test plant species were planted in a soil matrix prepared by mixing a loam soil (32 percent silt, 23 percent clay, and 45 percent sand, with a pH of about 6.5 and an organic matter content of about 1.9 percent) and calcareous grit in an 80 to 20 ratio. The soil matrix was contained in plastic pots with a volume of 1 quart and a surface area of 83.6 square centimeters (cm^2).
Treatments consisted of the benzyl ester of 4-amino-3-chloro-5-fluoro-6-(4-chloro-2-fluoro-3-methoxy-phenyl)pyridine-2-carboxylic acid (compound A) formulated as an SC (suspension concentrate) and various herbicidal components alone and in combination. Forms of compound A were applied on an acid equivalent basis.
Other herbicidal components were applied on an acid equivalent or active ingredient basis and included the protoporphyrinogen oxidase (PPO)-inhibiting herbicides, flumioxazin formulated as Payload® and oxadiazon formulated as Ronstar® 50W.
Treatment requirements were calculated based upon the rates being tested, the concentration of active ingredient or acid equivalent in the formulation, and a 12 mL application volume at a rate of 187 L/ha.
For treatments comprised of formulated compounds, measured amounts of compounds were placed individually in 25 mL glass vials and diluted in a volume of 1.25% (v/v) Agri-Dex® crop oil concentrate (COC) to obtain 12× stock solutions. […] Application solutions were prepared by adding an appropriate amount of each stock solution (e.g., 1 mL) and diluted to the appropriate final concentrations with the addition of 10 mL of an aqueous mixture of 1.25% (v/v) COC so that the final spray solutions contained 1.25% (v/v) COC.
All stock solutions and applications solutions were visually inspected for compound compatibility prior to application. Spray solutions were applied to the soil with an overhead Mandel track sprayer equipped with a 8002E nozzles calibrated to deliver 187 L/ha over an application area of 0.503 m^2 at a spray height of 18 inches (46 cm) above average pot height. Control pots were sprayed in the same manner with the solvent blank.
The treated and control pots were placed in a greenhouse and top watered as needed. When required to ensure good germination and healthy plants, a fungicide treatment and/or other chemical or physical treatment was applied. The pots were maintained in a greenhouse with an approximate 14 hr photoperiod which was maintained at about 29° C. during the day and 26° C. during the night. Nutrients (Peters® Excel 15-5-15 5-Ca 2-Mg) were applied in the irrigation solution as needed and water was added on a regular basis. Supplemental lighting was provided with overhead metal halide 1000-Watt lamps as necessary. After approximately 4 weeks, the condition of the test plants as compared with that of the untreated plants was determined visually and scored on a scale of 0 to 100 percent where 0 corresponds to no injury or growth inhibition and 100 corresponds to complete kill.
Colby's equation was used to determine the herbicidal effects expected from the mixtures (Colby, S. R. 1967. Calculation of the synergistic and antagonistic response of herbicide combinations. Weeds 15:20-22.).
The following equation was used to calculate the expected activity of mixtures containing two active ingredients, A and B: Expected=A+B−(A×B/100)

Assay [6] has as its system ECHCG. Kind of assay: Postemergence foliar-applied weed control, direct seeded rice, greenhouse (Example I). The settings on record: g ae/ha Compound A Benzyl Ester+g ai/ha pyraflufen-ethyl: r11 8+0, r12 0+5.3, r13 0+10.6, r14 8+5.3, r15 8+10.6. The assay is classed as in vivo, Echinochloa crusgalli (L.) Beauv.
The mark [7] stands for this setting: g ae/ha Compound A n-Butyl Ester+g ai/ha oxadiazon: r11 17.5+0, r12 0+250, r13 17.5+250.

On to `CCCCOC(=O)c1nc(-c2ccc(Cl)c(OC)c2F)c(F)c(N)c1Cl` [Compound A n-Butyl Ester], for which the “Visual Weed Control (%) - 19 DAA LEFCH Obs” value in assay [1] was determined as 10%. Besides, in assay [2] (setting [7]), the “Visual Weed Control (%) - 21 DAA IPOHE Obs” value is listed as 40%. Also, the “Visual Weed Control (%) - 21 DAA ECHOR Obs” value was found to be 25% in assay [3] (35 g ae/ha alone) and 38% in assay [3] (70 g ae/ha alone). The “Visual Weed Control (%) - 21 DAA LEFCH Obs” value in assay [4] was 8%.

For `C#CCOc1cc(-n2nc(C(C)(C)C)oc2=O)c(Cl)cc1Cl` [Oxadiargyl, 3-[2,4-dichloro-5-(2-propynyloxy)phenyl]-5-(1,1-dimethylethyl)-1,3,4-oxadiazol-2(3H)-one], the “Visual Weed Control (%) - 22 DAA IPOHE Obs” value in assay [2] (g ae/ha Compound A Acid+g ai/ha oxadiargyl: r10 4.38+0, r11 8.75+0, r12 17.5+0, r13 0+50, r14 4.38+50, r15 8.75+50, r16 17.5+50) is 25%; in assay [2] (g ae/ha Compound A Benzyl Ester+g ai/ha oxadiargyl: r11 4.38+0, r12 8.75+0, r13 0+50, r14 4.38+50, r15 8.75+50), 25%.

In the case of `CC(C)Oc1cc(-n2nc(C(C)(C)C)oc2=O)c(Cl)cc1Cl` [Oxadiazon, 3-[2,4-dichloro-5-(1-methylethoxy)phenyl]-5-(1,1-dimethylethyl)-1,3,4-oxadiazol-2(3H)-one], the “Visual Weed Control (%) - 21 DAA IPOHE Obs” value in assay [2] (g ae/ha Compound A Benzyl Ester+g ai/ha oxadiazon: r33 17.5+0, r34 0+250, r35 17.5+250) is on record as 5%; in assay [2] (setting [7]), 5%. Further, in assay [2] (second section, g ae/ha Compound A Acid+g ai/ha oxadiazon: r23 17.5+0, r24 35+0, r25 0+250, r26 17.5+250, r27 35+250), the “Visual Weed Control (%) - 20 DAA IPOHE Obs” value is recorded as 5%. Besides, the “Visual Weed Control (%) - 21 DAA ECHOR Obs” value in assay [3] (62.5 g ai/ha alone) was determined as 15%; in assay [3] (250 g ai/ha alone) it was 18%; in assay [3] (second block, g ae/ha Compound A Acid+g ai/ha oxadiazon: r22 35+0, r23 70+0, r24 0+250, r25 35+250, r26 70+250), 18%. In addition, the “Visual Weed Control (%) - 32 DAA IPOHE Obs” value came to 50% in assay [5] (560 g ai/ha alone) and 100% in assay [5] (1120 g ai/ha alone).

Turning to `CCOC(=O)COc1cc(-c2nn(C)c(OC(F)F)c2Cl)c(F)cc1Cl` [Pyraflufen-ethyl, ethyl 2-[2-chloro-5-[4-chloro-5-(difluoromethoxy)-1-methyl-1H-pyrazol-3-yl]-4-fluorophenoxy]acetate, reference compound], in assay [6], the “Visual Weed Control (%) - 21 DAA ECHCG Obs” value was found to be 15%.
